± gives the expanded uncertainty stated by the source.
Conditions: 298.15 K; 101.33 kPa; Liquid

Compound	mass density [kg/m3]
CCCC[n+]1ccccc1C.F[B-](F)(F)F [1-butyl-2-methylpyridinium tetrafluoroborate]	1202.5 ± 1
CCCC[n+]1ccc(C)cc1.F[B-](F)(F)F [1-butyl-4-methylpyridinium tetrafluoroborate]	1183.1 ± 0.9
CCCC[n+]1ccccc1.F[B-](F)(F)F [1-butylpyridinium tetrafluoroborate]	1214 ± 1
CCCCCC[n+]1ccccc1.F[B-](F)(F)F [1-hexylpyridinium tetrafluoroborate]	1154.8 ± 0.8
c1ccccc1 [benzene]	873.4 ± 0.5
Cc1ccccc1 [toluene]	862.27 ± 0.53

Reference: the NIST ThermoML archive (doi:10.1021/je901065e)
